Test results published in patent US11077052B1, “Selected multi-phase treatment for coronavirus respiratory infections” (priority 2020, dated 2021).

Experiments:
Assay type in all cases: in vivo, human
SARS-CoV-2 [1] = test: Inhalation of the smelling salt by patients during the COVID-19 pandemic; details: liquid CBD added
Protocol: In another formula, in addition to the herbal infused alcohols and concentrated herbal extracts, liquid CBD was also added. […] Apparently, CBD has synergistic effect with the probiotic produced volatile therapeutic compounds. Towards the end of preparation, the multiple strain probiotics along with their bio-active peptides and volatile therapeutic growth end products were add to the formula. The above prepared formulas were placed in a plastic or glass container with a tight closure or in a cartridge with screw type closure. Prior to inhalation, the cap is removed and, using one nostril at a time, it is inhaled deeply to reach the bottom of each and every alveoli of the lung. Conversely, the composition can also be applied using a standard nebulizer with proper liquefaction of the ingredients using a suitable solvent such as water.
The preparation was tried on patients of all age groups and genders ranging from 5 years to 75 years. They were asked to inhale once in the morning and once in the evening if they are at home or office. If they have to go to public places or a crowded place, they were asked to inhale before and after visiting the place. […]
In addition to the ingredients listed in Table 3, further testing evaluated the addition of a minimal amount of ammonium carbonate. In another composition, sodium hypochlorite has been replaced by a minimal quantity of liquid chloroform. […]

SARS-CoV-2 [2] = test: Oral probiotics liposome in test subjects and COVID-19 patients; details: acute cases of COVID-19
Description: Recommended daily dosages for the above prepared liquid antioxidant liposome are one dose of 1 ounce or two doses of one-half ounce each. This preparation was given to several test subjects of all ages who were monitored for coronavirus infection over a period of 5.5 months during the coronavirus pandemic period (February through middle of August 2020). […] In addition, the above preparation was given to a patient who had been infected with COVID-19. This patient recovered quickly, within one to two weeks.
The liposome also was evaluated with variations of ingredients to identify which appeared to provide the better effectiveness. The standard for comparison had the liposome prepared with, herbal extracts, CBD, ascorbic acid, sodium bicarbonate, and sodium ascorbate. However, the probiotics were not included. A first test version had the liposome prepared with ascorbic acid and herbal extracts only, without sodium ascorbate, sodium bicarbonate, CBD, and probiotics. A second test version had the liposome prepared with concentrated herbal extracts of clove, turmeric, and basil in combination with ascorbic acid and sodium ascorbate along with multiple probiotics strain, but without inclusion of their all other immunomodulins and growth end products. […]

SARS-CoV-2 [3] = test: Nasal irrigation with the Example 1 composition in people during the COVID-19 pandemic, judged by symptoms; details: added to the Example 1 composition

SMILES: C=C(C)[C@@H]1CCC(C)=C[C@H]1c1c(O)cc(CCCCC)cc1O [CBD, Cannabidiol]
- effect of addition on efficacy of the inhaling smelling salt (SARS-CoV-2 [1]): significantly improved the efficacy
- effect of CBD in the liposome on recovery (SARS-CoV-2 [2]): significantly improved the recovery
- effect of inclusion in the nasal irrigation formulation (SARS-CoV-2 [3]): significantly improved the nasal clearance
